Measured values reported in ChEMBL document CHEMBL1126104, “Synthesis and antiviral activity of some new S-adenosyl-L-homocysteine derivatives” (1992).
Values after ≈ are worked out from the molar mass of the structure shown.

Columns and labels:
Human alphaherpesvirus 2 = experiment: Antiviral activity against HSV-2(G) strain in primary rabbit kidney (PRK) / embryonic skin-muscle (E6SM) fibroblast culture lines; format: functional; details: Human alphaherpesvirus 2, Muscle tissue
[1] = test system: Mammalian orthoreovirus 1; experiment: Antiviral activity against reovirus type 1 in Vero cell culture lines; format: functional
Coxsackievirus B4 [2] = experiment: Antiviral activity against coxsackie B4 in Vero cell culture lines; format: functional; details: Enterovirus B
[3] = test system: Vesicular stomatitis virus; experiment: Antiviral activity against vesicular stomatitis virus (VSV) in primary rabbit kidney (PRK) / embryonic skin-muscle (E6SM) fibroblast culture lines; format: functional; details: Muscle tissue
Semliki Forest virus = experiment: Antiviral activity against semliki forest virus (SFV) in Vero cell culture lines; format: functional
Human alphaherpesvirus 1 = experiment: Antiviral activity against HSV-1(KOS) strain in primary rabbit kidney (PRK) / embryonic skin-muscle (E6SM) fibroblast culture lines; format: functional; details: Human alphaherpesvirus 1, Muscle tissue
[4] = test system: Vesicular stomatitis virus; experiment: Antiviral activity against vesicular stomatitis virus (VSV) in HeLa cell culture lines,; format: functional
Sindbis virus = experiment: Antiviral activity against sindbis virus in Vero cell culture lines; format: functional
Vaccinia virus = experiment: Antiviral activity against vaccinia virus (VV) in primary rabbit kidney (PRK) / embryonic skin-muscle (E6SM) fibroblast culture lines; format: functional; details: Orthopoxvirus vaccinia, Muscle tissue
[5] = test system: Human immunodeficiency virus 1; experiment: Antiviral activity against (HIV-1) in MT-4 cells Value in parentheses is inhibitory concentration for cell growth (MT-4); format: functional, MT4
Poliovirus 1 = experiment: Antiviral activity against polio virus type 1 in HeLa cell culture lines; format: functional; details: Enterovirus C
Coxsackievirus B4 [6] = experiment: Antiviral activity against coxsackie B4 virus in HeLa cell culture lines; format: functional; details: Enterovirus B
Human respirovirus 3 = experiment: Antiviral activity against parainfluenza virus type 3 in Vero cell culture lines; format: functional

SMILES	MIC (Human alphaherpesvirus 2) [µg/mL]	MIC [1] [µg/mL]	MIC (Coxsackievirus B4 [2]) [µg/mL]	MIC [3] [µg/mL]	MIC (Semliki Forest virus) [µg/mL]	MIC (Human alphaherpesvirus 1) [µg/mL]	MIC [4] [µg/mL]	MIC (Sindbis virus) [µg/mL]	MIC (Vaccinia virus) [µg/mL]	MIC [5] [µg/mL]	MIC (Poliovirus 1) [µg/mL]	MIC (Coxsackievirus B4 [6]) [µg/mL]	MIC (Human respirovirus 3) [µg/mL]
COCC(=O)NC(CCSC[C@H]1OC(n2ccc3c(N)ncnc32)[C@H](O)[C@@H]1O)C(=O)OC(C)C (some centres undefined)	70 (≈ 141 µM)	> 200	> 100	20 (≈ 40.2 µM)	> 200	> 150	100 (≈ 201 µM)	> 200	7 (≈ 14.1 µM)	> 100	> 200	> 200	> 200
COCC(=O)NC(CCSC[C@H]1OC(n2ccc3c(N)ncnc32)[C@H](O)[C@@H]1O)C(=O)O (some centres undefined)	> 400	> 400	> 400	> 20	> 400	> 400	> 400	> 400	> 400	> 200	> 400	> 400	> 400
CCCOC(=O)C(CCSC[C@H]1OC(n2ccc3c(N)ncnc32)[C@H](O)[C@@H]1O)NC(C)=O (some centres undefined)	20 (≈ 42.8 µM)	15 (≈ 32.1 µM)	20 (≈ 42.8 µM)	7 (≈ 15 µM)	> 40	40 (≈ 85.6 µM)	20 (≈ 42.8 µM)	> 40	7 (≈ 15 µM)	> 4	40 (≈ 85.6 µM)	20 (≈ 42.8 µM)	20 (≈ 42.8 µM)
Nc1ncnc2c1ncn2[C@@H]1O[C@H](CCl)C[C@H]1O	> 100	> 40	> 40	> 400	> 40	> 200	> 200	> 40	> 200	> 100	> 200	> 200	> 40
COC(=O)C(CCSC[C@@H]1C[C@@H](O)[C@H](n2ccc3c(N)ncnc32)O1)NC(=O)C(F)(F)F (some centres undefined)	> 200	40 (≈ 83.8 µM)	> 200	20 (≈ 41.9 µM)	> 400	> 200	300 (≈ 628 µM)	> 400	70 (≈ 147 µM)	> 100	> 400	> 200	> 200
CC(C)(C)C(=O)OCn1nc([C@@H]2O[C@H](CO)[C@@H](O)[C@H]2O)c2ncnc(N)c21	> 40	3 (≈ 7.87 µM)	> 10	30 (≈ 78.7 µM)	> 10	30 (≈ 78.7 µM)	30 (≈ 78.7 µM)	> 10	> 40	> 0.8	> 40	> 40	1 (≈ 2.62 µM)
Nc1ncnc2c1ncn2[C@H]1C[C@H](O)[C@@H](CO)O1 [DEOXYADENOSINE]	100 (≈ 398 µM)	> 200	> 200	> 200	> 200	> 150	> 200	> 200	150 (≈ 597 µM)	> 20	> 200	> 200	> 200
Nc1nccc2c1ncn2[C@H]1CC[C@@H](CO)O1	> 100	> 100	> 100	> 100	> 100	> 200	> 200	> 100	> 100	> 100	> 200	> 200	> 100
Nc1ncnc2c([C@@H]3O[C@H](CSCCC(N)C(=O)O)C[C@H]3O)n[nH]c12 (some centres undefined)	> 40	> 40	> 40	> 40	> 40	> 40	> 40	> 40	> 40	> 100	> 40	> 40	> 40
Nc1ncnc2c1ccn2C1O[C@H](CSCCC(NC(=O)C(F)(F)F)C(=O)O)[C@@H](O)[C@H]1O (some centres undefined)	> 200	> 400	> 400	> 200	> 400	> 200	> 400	> 400	20 (≈ 41.7 µM)	> 20	> 400	> 400	> 400
CCOC(=O)C(CCSC[C@H]1OC(n2ccc3c(N)ncnc32)[C@H](O)[C@@H]1O)NC(C)=O (some centres undefined)	20 (≈ 44.1 µM)	> 30	20 (≈ 44.1 µM)	5 (≈ 11 µM)	> 100	70 (≈ 154 µM)	> 20	> 70	15 (≈ 33.1 µM)	> 4	70 (≈ 154 µM)	70 (≈ 154 µM)	> 40
CCOC(=O)C(CCSC[C@H]1OC(n2ccc3c(N)ncnc32)[C@H](O)[C@@H]1O)NC(=O)C(F)(F)F (some centres undefined)	10 (≈ 19.7 µM)	> 20	7 (≈ 13.8 µM)	2 (≈ 3.94 µM)	> 40	7 (≈ 13.8 µM)	4 (≈ 7.88 µM)	> 20	7 (≈ 13.8 µM)	> 4	20 (≈ 39.4 µM)	20 (≈ 39.4 µM)	> 20
Nc1nccc2c1ncn2[C@@H]1O[C@H](CSCCC(N)C(=O)O)C[C@H]1O (some centres undefined)	> 400	> 400	> 400	> 200	> 400	> 400	> 400	> 400	> 400	> 100	> 400	> 400	> 400
Nc1ncnc2c(C3O[C@H](CSCCC(N)C(=O)O)[C@@H](O)[C@H]3O)n[nH]c12 (some centres undefined)	400 (≈ 1040 µM)	> 100	> 100	20 (≈ 52 µM)	> 100	200 (≈ 520 µM)	150 (≈ 390 µM)	> 100	100 (≈ 260 µM)	> 4	> 400	> 400	30 (≈ 78 µM)
Nc1ncnc2c([C@@H]3O[C@H](CO)C[C@H]3O)n[nH]c12	> 400	> 200	> 200	> 400	> 400	> 400	> 400	> 400	> 400	> 100	> 400	> 400	300 (≈ 1190 µM)
Nc1ncnc2c1ncn2[C@@H]1O[C@H](CO)C[C@H]1O [CORDYCEPIN]	> 40	> 100	> 100	> 40	> 100	> 40	> 100	> 100	> 100	> 4	> 100	> 100	> 100
Nc1nccc2ncn([C@H]3C[C@H](O)[C@@H](CO)O3)c12	100 (≈ 400 µM)	> 400	> 400	> 200	> 400	150 (≈ 599 µM)	> 200	> 400	> 200	> 50	> 200	> 200	> 400
COC(=O)C(N)CCSC[C@H]1OC(n2ccc3c(N)ncnc32)[C@H](O)[C@@H]1O (some centres undefined)	20 (≈ 50.3 µM)	> 200	> 100	20 (≈ 50.3 µM)	> 200	> 100	20 (≈ 50.3 µM)	> 200	4 (≈ 10.1 µM)	> 20	> 200	> 200	> 200
